Several values for one entry are separate records, joined by “and”; a condition that tells them apart may be missing. Equal values may be shown once. Inconclusive results and toxic doses are left out. Cut-off read from the data, not from the text of the source: active = T/C of 150% or more; inactive = T/C below 125%.
System: L1210 leukemia ip in BDF1 mice, survival T/C
Assay: NCI In Vivo Anticancer Drug Screen. Data for tumor model L1210 Leukemia (intraperitoneal) in B6D2F1 (BDF1) mice
Details: endpoint: mean survival time, higher = longer survival
Method in brief: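 Mice bearing the transplanted tumor received compound or vehicle. Survival of the treated group was divided by that of the vehicle-treated control group to give the ratio.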

[1] = dose: 50.0 mg/kg/injection, schedule: Q01DX009 (ip), vehicle: saline
[2] = dose: 100.0 mg/kg/injection, schedule: Q01DX009 (ip), vehicle: saline
[3] = dose: 100.0 mg/kg/injection, schedule: Q04DX002 (ip), vehicle: saline with Tween-80
[4] = dose: 200.0 mg/kg/injection, schedule: Q01DX009 (ip), vehicle: saline
[5] = dose: 200.0 mg/kg/injection, schedule: Q04DX002 (ip), vehicle: saline with Tween-80
[6] = dose: 100.0 mg/kg/injection, schedule: Q01DX009 (ip), vehicle: Klucel (hydroxypropylcellulose) (HPC)
[7] = dose: 200.0 mg/kg/injection, schedule: Q01DX009 (ip), vehicle: Klucel (hydroxypropylcellulose) (HPC)
[8] = dose: 100.0 mg/kg/injection, schedule: Q01DX001 (ip), vehicle: saline
[9] = dose: 200.0 mg/kg/injection, schedule: Q01DX001 (ip), vehicle: saline
[10] = dose: 400.0 mg/kg/injection, schedule: Q01DX001 (ip), vehicle: saline
[11] = dose: 50.0 mg/kg/injection, schedule: Q01DX001 (ip), vehicle: saline
[12] = dose: 100.0 mg/kg/injection, schedule: Q04DX002 (ip), vehicle: Klucel (hydroxypropylcellulose) (HPC)
[13] = dose: 200.0 mg/kg/injection, schedule: Q04DX002 (ip), vehicle: Klucel (hydroxypropylcellulose) (HPC)
[14] = dose: 400.0 mg/kg/injection, schedule: Q04DX002 (ip), vehicle: Klucel (hydroxypropylcellulose) (HPC)
[15] = dose: 100.0 mg/kg/injection, schedule: Q04DX003 (ip), vehicle: Klucel (hydroxypropylcellulose) (HPC)
[16] = dose: 200.0 mg/kg/injection, schedule: Q04DX003 (ip), vehicle: Klucel (hydroxypropylcellulose) (HPC)
[17] = dose: 400.0 mg/kg/injection, schedule: Q04DX003 (ip), vehicle: Klucel (hydroxypropylcellulose) (HPC)
[18] = dose: 100.0 mg/kg/injection, schedule: Q04DX003 (ip), vehicle: saline
[19] = dose: 200.0 mg/kg/injection, schedule: Q04DX003 (ip), vehicle: saline
[20] = dose: 400.0 mg/kg/injection, schedule: Q04DX003 (ip), vehicle: saline
[21] = dose: 100.0 mg/kg/injection, schedule: Q01DX009 (ip), vehicle: saline with Tween-80
[22] = dose: 100.0 mg/kg/injection, schedule: Q04DX003 (ip), vehicle: saline with Tween-80
[23] = dose: 200.0 mg/kg/injection, schedule: Q01DX009 (ip), vehicle: saline with Tween-80
[24] = dose: 200.0 mg/kg/injection, schedule: Q04DX003 (ip), vehicle: saline with Tween-80
[25] = dose: 400.0 mg/kg/injection, schedule: Q01DX009 (ip), vehicle: saline with Tween-80
[26] = dose: 400.0 mg/kg/injection, schedule: Q04DX003 (ip), vehicle: saline with Tween-80

Measured: T/C

CCC1OC(C)CC(C)(C)O1 (stereo not given)
inactive: [1] 96 % of control | [2] 101 % of control | [3] 93 % of control | dose: 100.0 mg/kg/injection, schedule: Q04DX003 (ip), vehicle: acetone 118 % of control | [4] 96 % of control | [5] 97 % of control | dose: 200.0 mg/kg/injection, schedule: Q04DX003 (ip), vehicle: acetone 120 % of control | dose: 400.0 mg/kg/injection, schedule: Q04DX002 (ip), vehicle: saline with Tween-80 101 % of control | dose: 400.0 mg/kg/injection, schedule: Q04DX003 (ip), vehicle: acetone 101 % of control

CN(N=Nc1ccc(C(=N)N)cc1)C1CCCCC1
inactive: dose: 9.5 mg/kg/injection, schedule: Q01DX001 (ip), vehicle: saline 95 % of control | dose: 19.0 mg/kg/injection, schedule: Q01DX001 (ip), vehicle: saline 98 % of control | dose: 38.0 mg/kg/injection, schedule: Q01DX001 (ip), vehicle: saline 95 % of control

CNC(=O)N(C)Cc1ccco1
inactive: dose: 50.0 mg/kg/injection, schedule: Q01DX009 (ip), vehicle: Klucel (hydroxypropylcellulose) (HPC) 91 % of control | [6] 102 % of control | [7] 101 % of control

O=C1C=CC(=O)c2c1ccc1c2[nH]c2ccccc21
inactive: [3] 113 % of control | [5] 90 % of control

Cc1ccc(S(=O)(=O)NCCC(=O)O)cc1
inactive: [8] 93 % of control | [9] 98 % of control | [10] 98 % of control

Cc1ccc(N=NN(C)N=Nc2ccc(C)cc2)cc1
inactive: [11] 98 % of control | [8] 95 % of control | [9] 95 % of control | [10] 93 % of control

CCN(CC)CCCC(C)Nc1c(C)cnc2cc(Cl)c(C)cc12 (stereo not given)
inactive: [11] 112 % of control | [8] 95 % of control | [9] 101 % of control

S=C(Nc1ccccc1)c1ccccc1
inactive: [12] 89 % of control | [13] 92 % of control | [14] 105 % of control

Cc1ccc(NC(=O)N(CCO)C2CCCCC2)c([N+](=O)[O-])c1
inactive: [15] 87 % of control | [16] 98 % of control | [17] 96 % of control

CC(NC(=O)NCCCl)c1cccc2ccccc12 (stereo not given)
inactive: [15] 102 % of control | [16] 103 % of control | [17] 95 % of control

Cc1nccc(Cl)n1
inactive: [18] 104 % of control | [19] 90 % of control | [20] 93 % of control

Cc1ccc(NC(=O)Nc2ccc(Cl)c(Cl)c2)c(C)c1
inactive: [6] 90 % of control | [15] 89 % of control | [7] 90 % of control | [16] 89 % of control | [17] 89 % of control

c1cc(CCCc2ccncc2)ccn1
inactive: dose: 25.0 mg/kg/injection, schedule: Q04DX002 (ip), vehicle: saline 108 % of control | dose: 50.0 mg/kg/injection, schedule: Q04DX002 (ip), vehicle: saline 95 % of control | dose: 100.0 mg/kg/injection, schedule: Q04DX002 (ip), vehicle: saline 95 % of control

O=S(=O)(CCO)CCO
inactive: [1] 100 % of control | [2] 100 % of control and 88 % of control | [4] 96 % of control and 100 % of control | dose: 400.0 mg/kg/injection, schedule: Q01DX009 (ip), vehicle: saline 97 % of control

CS(=O)(=O)/C=C\c1ccccc1
inactive: [18] 101 % of control | [19] 95 % of control | [20] 103 % of control

CCOC(=O)C(CCC#N)C1=NC(C)(C)CC(C)O1 (stereo not given)
inactive: dose: 100.0 mg/kg/injection, schedule: Q01DX001 (ip), vehicle: Klucel (hydroxypropylcellulose) (HPC) 97 % of control | dose: 200.0 mg/kg/injection, schedule: Q01DX001 (ip), vehicle: Klucel (hydroxypropylcellulose) (HPC) 101 % of control | dose: 400.0 mg/kg/injection, schedule: Q01DX001 (ip), vehicle: Klucel (hydroxypropylcellulose) (HPC) 103 % of control

Nc1ccc(N=Nc2ccccc2)c(N)n1
inactive: [15] 89 % of control | [18] 97 % of control | [16] 90 % of control

Nc1ncc(CNc2ccc(C(=O)NC(CC(=O)O)C(=O)O)cc2)c(N)n1 (stereo not given)
inactive: dose: 100.0 mg/kg/injection, schedule: Q01DX001 (ip), vehicle: saline with Tween-80 93 % of control | [21] 106 % of control | [22] 93 % of control | dose: 200.0 mg/kg/injection, schedule: Q01DX001 (ip), vehicle: saline with Tween-80 105 % of control | [23] 100 % of control | [24] 97 % of control | dose: 400.0 mg/kg/injection, schedule: Q01DX001 (ip), vehicle: saline with Tween-80 100 % of control | [25] 105 % of control | [26] 98 % of control

CCP(=S)(CP(=S)(c1ccccc1)c1ccccc1)c1ccccc1 (stereo not given)
inactive: dose: 100.0 mg/kg/injection, schedule: Q04DX002 (sc), vehicle: olive oil, sesame oil, peanut oil 104 % of control | dose: 200.0 mg/kg/injection, schedule: Q04DX002 (sc), vehicle: olive oil, sesame oil, peanut oil 104 % of control | dose: 400.0 mg/kg/injection, schedule: Q04DX002 (sc), vehicle: olive oil, sesame oil, peanut oil 104 % of control

O=C(Nc1ccc(Cl)cc1)c1ccccc1Cl
inactive: [12] 93 % of control | [13] 100 % of control | [14] 100 % of control

Cc1ccc(NCC2(/N=C/c3ccccc3)OC(CO)C(O)C2O)cc1 (stereo not given)
inactive: [12] 97 % of control | [13] 102 % of control | [14] 102 % of control

OCCCN=Cc1ccccc1O.OCCCN=Cc1ccccc1O.[Cu]
inactive: dose: 9.5 mg/kg/injection, schedule: Q01DX001 (ip), vehicle: other 92 % of control | dose: 19.0 mg/kg/injection, schedule: Q01DX001 (ip), vehicle: other 97 % of control | dose: 38.0 mg/kg/injection, schedule: Q01DX001 (ip), vehicle: other 100 % of control | dose: 75.0 mg/kg/injection, schedule: Q01DX001 (ip), vehicle: other 114 % of control

CCC(=O)Nc1cccc(OC(=O)N(C)C)c1
inactive: [22] 100 % of control | [24] 98 % of control | [26] 100 % of control

O=S1(=O)C=C(Br)CC1
inactive: dose: 75.0 mg/kg/injection, schedule: Q01DX001 (ip), vehicle: saline with Tween-80 97 % of control | dose: 150.0 mg/kg/injection, schedule: Q01DX001 (ip), vehicle: saline with Tween-80 97 % of control | dose: 300.0 mg/kg/injection, schedule: Q01DX001 (ip), vehicle: saline with Tween-80 95 % of control

c1ccc2cc(Nc3ccc4ccccc4c3)ccc2c1
inactive: [21] 106 % of control | [23] 108 % of control | [25] 101 % of control

O=S(=O)(NC1CCCC2C=CC=CC21)c1ccccc1 (stereo not given)
inactive: [21] 96 % of control | [22] 93 % of control | [23] 102 % of control | [24] 92 % of control | [25] 88 % of control | [26] 95 % of control

CCC1=C(C)CC2c3cc(OC)c(OC)cc3CCN2C1 (stereo not given)
inactive: dose: 4.0 mg/kg/injection, schedule: Q04DX003 (ip), vehicle: water 110 % of control | dose: 8.0 mg/kg/injection, schedule: Q04DX003 (ip), vehicle: water 103 % of control | dose: 16.0 mg/kg/injection, schedule: Q04DX003 (ip), vehicle: water 104 % of control | dose: 32.0 mg/kg/injection, schedule: Q04DX003 (ip), vehicle: water 108 % of control | dose: 64.0 mg/kg/injection, schedule: Q04DX003 (ip), vehicle: water 106 % of control | dose: 75.0 mg/kg/injection, schedule: Q01DX001 (ip), vehicle: saline 103 % of control | dose: 150.0 mg/kg/injection, schedule: Q01DX001 (ip), vehicle: saline 94 % of control | dose: 300.0 mg/kg/injection, schedule: Q01DX001 (ip), vehicle: saline 101 % of control

From PubChem BioAssay AID248 (DTP/NCI, 2004)
